This is an account of results in patent publication US10280159B2 (AbbVie Deutschland GmbH & Co. KG, priority 2015, dated 2019).

pEC50: −log10 of the molar value.

Holding throughout (assay type): cell-based
Assay [1] concerns the target T1, human S1PR5 (Homo sapiens, UniProt Q9H228).
T1 construct: host or cells: CHO-K1
Kind of assay: Intracellular Ca2+ release (FLIPR) agonist potency, S1P5. To be noted: recombinant CHO-K1 cells expressing human S1PR5, aequorin, Gq/i5; Calcium 5 FLIPR; read-out: S1P5 EC50 range. The procedure, abridged: (§1)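 CHO-K1 cells recombinantly expressing the human S1P receptor plus aequorin and Gq/i5 were grown in F-12 Ham with 10% FBS. Agonist-induced intracellular Ca2+ release was read on a FLIPR Tetra. EC50 came from nonlinear fits of raw fluorescence normalized to the phospho-fingolimod reference curve.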

The target in assay [2] is T2, human S1PR1 (Homo sapiens, UniProt P21453).
T2 construct: host or cells: CHO-K1
T2 sequence (P21453 whole entry): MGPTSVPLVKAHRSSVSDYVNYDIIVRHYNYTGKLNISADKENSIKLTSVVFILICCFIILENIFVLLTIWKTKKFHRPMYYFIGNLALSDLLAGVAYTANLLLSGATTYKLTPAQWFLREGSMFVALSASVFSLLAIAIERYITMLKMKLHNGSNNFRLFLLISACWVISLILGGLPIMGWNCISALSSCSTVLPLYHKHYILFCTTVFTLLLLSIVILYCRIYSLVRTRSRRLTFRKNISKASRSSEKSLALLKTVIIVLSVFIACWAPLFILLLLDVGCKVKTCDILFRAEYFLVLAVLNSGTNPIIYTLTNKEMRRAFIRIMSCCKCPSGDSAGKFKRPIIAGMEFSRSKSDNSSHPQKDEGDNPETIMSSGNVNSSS
The experiment in a line: Intracellular Ca2+ release (FLIPR) agonist potency, S1P1. To be noted: recombinant CHO-K1 cells expressing human S1PR1, aequorin, Gq/i5; Calcium 5 FLIPR; read-out: S1P1 EC50. The method, boiled down:
as §1

Assay [3] concerns the target T3, human S1PR4 (Homo sapiens, UniProt O95977).
T3 construct: host or cells: CHO-K1
T3 sequence (O95977 1-384): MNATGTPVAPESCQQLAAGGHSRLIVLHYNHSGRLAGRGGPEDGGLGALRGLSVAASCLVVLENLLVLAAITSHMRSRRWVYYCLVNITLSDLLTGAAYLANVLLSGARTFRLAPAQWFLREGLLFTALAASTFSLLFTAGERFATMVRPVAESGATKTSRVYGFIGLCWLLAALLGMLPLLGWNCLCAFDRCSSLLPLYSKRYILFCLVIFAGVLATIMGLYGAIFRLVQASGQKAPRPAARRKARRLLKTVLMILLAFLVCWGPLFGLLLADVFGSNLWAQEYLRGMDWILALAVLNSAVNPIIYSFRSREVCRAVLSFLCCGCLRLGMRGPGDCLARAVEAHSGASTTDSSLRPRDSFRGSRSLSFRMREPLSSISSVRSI
The experiment in a line: Intracellular Ca2+ release (FLIPR) agonist potency, S1P4. Conditions: recombinant CHO-K1 cells expressing human S1PR4, aequorin, Gq/i5; Calcium 5 FLIPR; read-out: S1P4 EC50. The procedure, abridged: as §1

T1 sequence (Q9H228 whole entry): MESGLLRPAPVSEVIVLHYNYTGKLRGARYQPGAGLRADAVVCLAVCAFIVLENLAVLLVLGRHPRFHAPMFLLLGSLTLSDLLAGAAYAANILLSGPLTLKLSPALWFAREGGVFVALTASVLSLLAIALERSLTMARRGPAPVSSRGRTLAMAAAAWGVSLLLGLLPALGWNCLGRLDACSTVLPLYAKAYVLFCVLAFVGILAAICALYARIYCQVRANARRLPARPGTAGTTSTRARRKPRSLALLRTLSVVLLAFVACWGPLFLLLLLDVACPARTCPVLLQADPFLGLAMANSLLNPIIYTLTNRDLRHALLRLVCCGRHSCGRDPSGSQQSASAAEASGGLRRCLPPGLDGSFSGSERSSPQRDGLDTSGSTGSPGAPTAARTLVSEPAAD

In general, pEC50 refers to −log10 of the EC50, conventionally taken in molar units. Take `O=C(O)COC1CCc2cc(OCc3ccccc3C(F)(F)F)ccc2C1` (stereo not drawn) [Compound 196, 2-[6-[[2-(trifluoromethyl)phenyl]methoxy]tetralin-2-yl]oxyacetic acid]: the pEC50 in assay [1] is 6.00 to 7.00; in assay [2] it was less than 6.00; in assay [3], less than 6.00.
Turning to `O=C(O)COC1CCc2cc(OCc3cccc(F)c3)ccc2C1` (stereo not drawn) [Compound 198, 2-[6-[(3-fluorophenyl)methoxy]tetralin-2-yl]oxyacetic acid], the negative logarithm of the EC50 (pEC50) in assay [1] is 5.00 to 6.00; in assay [2], less than 6.00; in assay [3], less than 6.00.
With `O=C(O)COC1CCc2cc(OCc3ccc(Cl)c(Cl)c3)ccc2C1` (stereo not drawn) [Compound 199, 2-[6-[(3,4-dichlorophenyl)methoxy]tetralin-2-yl]oxyacetic acid], the pEC50 in assay [1] was 5.00 to 6.00; in assay [2], less than 6.00; in assay [3], less than 6.00.
Consider `Cc1c(COc2ccc3c(c2)CCC(OCC(=O)O)C3)cccc1C(F)(F)F` (stereo not drawn) [Compound 200, 2-[6-[[2-methyl-3-(trifluoromethyl)phenyl]methoxy]tetralin-2-yl]oxyacetic acid], for which the pEC50 is 5.00 to 6.00 in assay [1], less than 6.00 in assay [2] and less than 6.00 in assay [3].
For `CSc1ccc(COc2ccc3c(c2)CCC(OCC(=O)O)C3)cc1` (stereo not drawn) [Compound 201, 2-[6-[(4-methylsulfanylphenyl)methoxy]tetralin-2-yl]oxyacetic acid], the pEC50 was 5.00 to 6.00 in assay [1], less than 6.00 in assay [2] and less than 6.00 in assay [3].
Take `O=C(O)COC1CCc2cc(OCc3ccc(OC(F)(F)F)cc3)ccc2C1` (stereo not drawn) [Compound 203, 2-[6-[[4-(trifluoromethoxy)phenyl]methoxy]tetralin-2-yl]oxyacetic acid]: the pEC50 in assay [1] was 5.00 to 6.00; in assay [2], less than 6.00; in assay [3], less than 6.00.
On to `O=C(O)COC1CCc2cc(OCc3cccc(F)c3F)ccc2C1` (stereo not drawn) [Compound 204, 2-[6-[(2,3-difluorophenyl)methoxy]tetralin-2-yl]oxyacetic acid], for which the pEC50 is 5.00 to 6.00 in assay [1], less than 6.00 in assay [2] and less than 6.00 in assay [3].
Regarding `O=C(O)COC1CCc2cc(OCc3cccc(Cl)c3)ccc2C1` (stereo not drawn) [Compound 205, 2-[6-[(3-chlorophenyl)methoxy]tetralin-2-yl]oxyacetic acid], the pEC50 in assay [1] is 6.00 to 7.00; in assay [2] it was less than 6.00; in assay [3], less than 6.00.
`O=C(O)COC1CCc2cc(OCc3ccccc3Cl)ccc2C1` (stereo not drawn) [Compound 206, 2-[6-[(2-chlorophenyl)methoxy]tetralin-2-yl]oxyacetic acid]: the pEC50 was 5.00 to 6.00 in assay [1], less than 6.00 in assay [2] and less than 6.00 in assay [3].
`O=C(O)COC1CCc2cc(OCc3ccccc3OC(F)(F)F)ccc2C1` (stereo not drawn) [Compound 208, 2-[6-[[2-(trifluoromethoxy)phenyl]methoxy]tetralin-2-yl]oxyacetic]: the pEC50 in assay [1] was 6.00 to 7.00; in assay [2], less than 6.00; in assay [3] it was less than 6.00.
In the case of `O=C(O)COC1CCc2cc(OCc3ccc(Cl)cc3)ccc2C1` (stereo not drawn) [Compound 209, 2-[6-[(4-chlorophenyl)methoxy]tetralin-2-yl]oxyacetic acid], the pEC50 is 5.00 to 6.00 in assay [1], less than 6.00 in assay [2] and less than 6.00 in assay [3].
Consider `O=C(O)COC1CCc2cc(OCc3ccc(F)c(F)c3)ccc2C1` (stereo not drawn) [Compound 212, 2-[6-[(3,4-difluorophenyl)methoxy]tetralin-2-yl]oxyacetic acid], for which the pEC50 in assay [1] is 5.00 to 6.00; in assay [2] it was less than 6.00; in assay [3], less than 6.00.
Turning to `O=C(O)COC1CCc2cc(OCc3ccc(F)cc3)ccc2C1` (stereo not drawn) [Compound 214, 2-[6-[(4-fluorophenyl)methoxy]tetralin-2-yl]oxyacetic acid], the pEC50 in assay [1] was 5.00 to 6.00; in assay [2] it was less than 6.00; in assay [3], less than 6.00.
For `CCc1cccc(Cl)c1COc1ccc2c(c1)CCC(N1CC(C(=O)N(C)OC)C1)C2` (stereo not drawn) [Compound 217, 1-[6-[(2-chloro-6-ethyl-phenyl)methoxy]tetralin-2-yl]-N-methoxy-N-methyl-azetidine-3-carboxamide], the pEC50 in assay [1] is 6.00 to 7.00; in assay [2], less than 6.00; in assay [3] it was less than 6.00.
For the compound `O=C(O)C1CN(C2COc3cc(OCc4c(Cl)cccc4Cl)c(Br)cc3C2)C1` (stereo not drawn) [Compound 221, 1-[6-bromo-7-[(2,6-dichlorophenyl)methoxy]chroman-3-yl]azetidine-3-carboxylic acid], the pEC50 is 7.00 to 8.00 in assay [1], less than 6.00 in assay [2] and less than 6.00 in assay [3].
Take `Cc1cc2c(cc1OCc1c(Cl)cccc1Cl)OCC(N1CC(C(=O)O)C1)C2` (stereo not drawn) [Compound 222, 1-[7-[(2,6-dichlorophenyl)methoxy]-6-methyl-chroman-3-yl]azetidine-3-carboxylic acid]: the figures for the pEC50 in assay [1], in assay [2] and in assay [3] were 7.00 to 8.00, less than 6.00 and less than 6.00, respectively.
Take `O=C(O)C1CN(C2CCOc3cc(OCc4c(Cl)cccc4Cl)c(F)cc32)C1` (stereo not drawn) [Compound 223, 1-[7-[(2,6-dichlorophenyl)methoxy]-6-fluoro-chroman-4-yl]azetidine-3-carboxylic acid]: the pEC50 in assay [1] was greater than 8.00; in assay [2], less than 6.00; in assay [3] it was less than 6.00.
Consider `O=C(O)C1CN(C2COc3c(cccc3OCc3c(Cl)cccc3Cl)C2)C1` (stereo not drawn) [Compound 225, 1-[8-[(2,6-dichlorophenyl)methoxy]chroman-3-yl]azetidine-3-carboxylic acid], for which the pEC50 in assay [1] was 5.00 to 6.00; in assay [2], less than 6.00; in assay [3], less than 6.00.
With `O=C(O)C1CN(C2COc3cc(OCCc4ccccc4)ccc3C2)C1` (stereo not drawn) [Compound 226, 1-(7-phenethyloxychroman-3-yl)azetidine-3-carboxylic acid], the pEC50 is 5.00 to 6.00 in assay [1], less than 6.00 in assay [2] and less than 6.00 in assay [3].
`O=C(O)C1CN(C2COc3cc(OCCc4ccccc4Cl)ccc3C2)C1` (stereo not drawn) [Compound 227, 1-[7-[2-(2-chlorophenyl)ethoxy]chroman-3-yl]azetidine-3-carboxylic acid]: the figures for the pEC50 in assay [1], in assay [2] and in assay [3] were 5.00 to 6.00, less than 6.00 and less than 6.00, respectively.
With `O=C(O)C1CN(C2COc3cc(OCCc4ccc(Cl)cc4)ccc3C2)C1` (stereo not drawn) [Compound 228, 1-[7-[2-(4-chlorophenyl)ethoxy]chroman-3-yl]azetidine-3-carboxylic acid], the pEC50 in assay [1] is 5.00 to 6.00; in assay [2], less than 6.00; in assay [3], less than 6.00.
Turning to `O=C(O)C1CN(C2COc3cc(Oc4c(Cl)cccc4Cl)ccc3C2)C1` (stereo not drawn) [Compound 229, 1-[7-(2,6-dichlorophenoxy)chroman-3-yl]azetidine-3-carboxylic acid], the pEC50 in assay [1] is 5.00 to 6.00; in assay [2] it was less than 6.00; in assay [3], less than 6.00.
On to `O=C(O)C1CN(C2COc3cc(OCC4CCC4)ccc3C2)C1` (stereo not drawn) [Compound 230, 1-[7-(cyclobutylmethoxy)chroman-3-yl]azetidine-3-carboxylic acid], for which the pEC50 in assay [1] was 5.00 to 6.00; in assay [2], less than 6.00; in assay [3], less than 6.00.
Regarding `O=C(O)C1CN(C2COc3cc(OCC4CC4)ccc3C2)C1` (stereo not drawn) [Compound 231, 1-[7-(cyclopropylmethoxy)chroman-3-yl]azetidine-3-carboxylic acid], the figures for the pEC50 in assay [1], in assay [2] and in assay [3] were 5.00 to 6.00, less than 6.00 and less than 6.00, respectively.
On to `CCc1cccc(Cl)c1COc1ccc2c(c1)OCC(OCC(=O)O)C2` (stereo not drawn) [Compound 233, ((7-((2-chloro-6-ethylbenzyl)oxy)chroman-3-yl)oxy)acetic acid], for which the pEC50 was greater than 8.00 in assay [1], less than 6.00 in assay [2] and less than 6.00 in assay [3].
Turning to `O=C(O)COC1COc2cc(OCc3c(F)ccc(Cl)c3F)ccc2C1` (stereo not drawn) [Compound 234, 2-((7-((3-chloro-2,6-difluorobenzyl)oxy)chroman-3-yl)oxy)acetic acid], the pEC50 in assay [1] was 5.00 to 6.00; in assay [2] it was less than 6.00; in assay [3] it was less than 6.00.
For the compound `O=C(O)CNC1COc2cc(-c3ccc(OCc4ccccc4)cc3)ccc2C1` (stereo not drawn) [Compound 237, 2-((7-(4-(benzyloxy)phenyl)chroman-3-yl)amino)acetic acid], the pEC50 was greater than 8.00 in assay [1], less than 6.00 in assay [2] and less than 6.00 in assay [3].
